Measured values from US20040259806A1 (priority 2001, published 2004).

Assays:
IL-2 = IL-2 production by Con A stimulated spleen cells (CTLL-2 assay); type: in vivo, mice
Experimental: (§1) In RPMI-1640, spleen cells were diluted to a concentration of 10^7/ml with 10% fetal calf serum, 2 mM L-glutamine and 80 ìg/ml gentamycin. A 100 ìl cell suspension was added to each well of a 96-well culture plate and cytokine production was induced by Con A at a final concentration of 2.5 ìg/ml. A control well included RPMI-1640. For 24 hours, cells were incubated at 37° C. and humidified in 5% CO2. Following incubation, […] of supernatant was removed from each well and stored at −70° C.
In order to determine the IL-2 concentration in cell culture supernatants, the CTLL-2 IL-2 dependent cell line was used. CTLL-IL-2 cells were washed twice in RPMI-1640 and counted with a Goriaev hemocytometer. Supernatants were diluted in 96-well culture plates at dilutions of 1:5, 1:15, 1:45 and 1:135 in a volume of 100 il. IL-2 standard dilutions were also prepared. Cells were diluted to 2×10^5/ml in RPMI-1640 with 10% inactivated fetal calf serum, 2 mM L-glutamine, 80 ìg/ml gentamycin. The 100 ìl suspension was added to each well of the culture plate and incubated for 48 h at 37° C. in 5% CO2 humidity. Ten ìl of 5 i Ci/ml ^3H-thymidine was added to each well 16 h before the end of incubation. Following incubation, the cells were harvested on filters through the use of a semi-automated harvester and samples were counted in a liquid scintillation counter.

blood leukocytes = type: in vivo, mice
peritoneal macrophages = experiment: Phagocytosis and killing of Saccharomyces cerevisiae by peritoneal macrophages of treated infected mice; type: in vivo
Experimental: In order to study phagocytosis, peritoneal macrophages were plated at a concentration of 10^6 cells per Petri dish and media including 10^7 Saccharomyces cerevisiae cells, opsonized by mice serum was added. Results were evaluated using the Mann-Whitney test. Phagocytic activity was calculated after determination of percentage of macrophages involved in phagocytes. The phagocytic index was determined by calculating the average number of yeast phagocytosed per one cell. Killing activity was resolved by the number of yeast digested by macrophages after 1.5 h of incubation. Finally, the killing index was determined as follows: [formula]

IL-4 and IFN-γ = experiment: IL-4 and INF-γ in spleen cell supernatants (Quantikine ELISA); type: in vivo, mice
Experimental: as §1
IL-4 and INF-γ assays in Con A-stimulated spleen cell supernatants were also performed using Quantikine™ ELIZA kits R & D Systems, Minneapolis, Minn.) in accordance with kit instructions. Plates were coated with monoclonal antibodies to either IL-4 or IFN-γ and blocked. Standards and samples were subsequently added. The cells were incubated for 2 h and washed, following with the addition of a colorimetric substrate. After 30 minutes, the reaction was terminated and plates were read at 450 nm using a plate reader (Multiscan™ 3550, BioRad, Japan).

tuberculosis = experiment: SCV-07 therapy of a patient with infiltrative tuberculosis (Example 1); type: in vivo, human; conditions: after SCV-07 0.1 mg daily for 5 days
Experimental: A patient, was admitted to the hospital with infiltrative tuberculosis with destruction and dissemination in the upper lobe of the left lung. […] Lymphopenia (18%) and increased ESR (25 mm/h) were present in the blood count. […] Aggressive traditional antituberculosis therapy was carried out including isoniazid at 600 mg/day intravenously, pyrazinamid at 1500 mg/day per os, rifampicin at 450 mg/day per os.
The traditional therapy was unsuccessful, and SCV-07 treatment was undertaken. Following a course of SCV-07 therapy at 0.1 mg daily for 5 days, bacterial intoxication resolved, destructive cavities closed and the sputum culture test was negative. CD3+ lymphocytes increased and tolerance to other drugs improved.

[1] = 17 days after SCV-07 therapy, Groups 8 and 9 (0.01 ìg/kg ip and 1 ìg/kg po)

N[C@H](CCC(=O)N[C@@H](Cc1c[nH]c2ccccc12)C(=O)O)C(=O)O [SCV-07, γ-D-glutamyl-L-tryptophan]
IL-2 production (IL-2; 4 days after therapy, Group 7 (0.1 ìg/kg ip) compared to Group 3 (isoniazid control), Con A stimulated spleen cells): 41.6±5.6 U/ml | IL-2 level (IL-2; 24 days after therapy, Group 6 (1 ìg/kg ip, 10 injections) and Group 7 (0.1 ìg/kg ip)): did not differ from uninfected mice | IL-2 production (IL-2; all treated groups, all time points after therapy): increase | Significant changes in blood lymphocytes and neutrophilic granulocytes (blood leukocytes; 4 days after therapy): not observed | monocyte levels (blood leukocytes; 10 days after therapy, Groups 6, 7, 8 and 9 compared with Group 3, the isoniazid control): decrease | lymphocyte numbers (blood leukocytes; [1]): increase | percent of neutrophils (blood leukocytes; [1]): significant decrease | macrophage killing (peritoneal macrophages; 24 days after treatment, Groups 6 and 7 (1.0 ìg/kg, 10 injections and 0.1 ìg/kg ip)): significantly improved | phagocytic activity (peritoneal macrophages; after 4 days, Group 7 (SCV-07 0.1 ìg/kg ip) compared to Group 3 (isoniazid control), p≦0.05, 64.2% in uninfected mice): 38.8% | phagocytic index (peritoneal macrophages; after 4 days, SCV-07 treatment): normalized | killing (peritoneal macrophages; after 4 days, SCV-07 versus control, p≦0.05): 244.4 | killing and the killing index (peritoneal macrophages; after 17 days, Group 6 (1.0 ìg/kg ip, 10 injections)): significantly increased | phagocytic activity (peritoneal macrophages; after 17 days, Group 6 (1.0 ìg/kg ip, 10 injections) versus Group 3 (isoniazid control)): 60.4% | phagocytic index (peritoneal macrophages; after 17 days, Group 6 (1.0 ìg/kg ip, 10 injections) versus Group 3, p=0.05): 6.88 U | killing (peritoneal macrophages; ten days after therapy, Group 5 (1 ìg/kg, ip) compared to the control): significantly increased | ingestion and killing (peritoneal macrophages; ten days after therapy, Groups 8 and 9 (0.01 ìg/kg ip and 1 ìg/kg po)): tendency toward decreased | basal IFN-γ production (IL-4 and IFN-γ; 4 days after therapy, versus isoniazid control mice (Group 3)): failed to differ | Con A stimulated INF-γ production (IL-4 and IFN-γ; 10 days after therapy, Groups 4, 5, 6 and 8): stimulation | Con A stimulated IL-4 production (IL-4 and IFN-γ; 10 days after therapy, Groups 5, 6 and 7): significantly decreased | basal IFN-γ production (IL-4 and IFN-γ; 17 days after therapy, all mice): increase | basal INF-γ production (IL-4 and IFN-γ; end of the experiment, only Group 6 (1 ìg/kg ip, 10 injections)): maintenance of this increase | basal IL-4 production (IL-4 and IFN-γ; mouse, in vivo): No significant changes | basal IFN-γ production (IL-4 and IFN-γ; ten days after therapy, Groups 5, 6 and 7): significant elevation | CD3+ lymphocytes (tuberculosis): increased | bacterial intoxication (tuberculosis): resolved | destructive cavities (tuberculosis): closed | Immune complexes in circulation (tuberculosis; from 84 U, normal level 22-66 U): 69 U | sputum culture test (tuberculosis; traditional therapy was unsuccessful): negative
